# Results: patent publication US7605121B2, “Oligopeptide lyophilisate, their preparation and use” (AEterna Zentaris GmbH, priority 1993, dated 2009)
# Where a SMILES comes first, the peptide text is derived from it. [ ]: non-standard residue; d: D form. dPhe(4-Cl) = N[C@H](Cc1ccc(Cl)cc1)C(=O)O; d2Nal = N[C@H](Cc1ccc2ccccc2c1)C(=O)O; dCit = NC(=O)NCCC[C@@H](N)C(=O)O; d3Pal = N[C@H](Cc1cccnc1)C(=O)O
# Assays:
# [1] = system: endogenous hormone production (LH-FSH, oestradiol); assay: Suppression of endogenous hormone production in in-vitro fertilization treatment; type: in vivo, patients; conditions: treatment over 5 days; female sterility / in-vitro fertilization
# Excerpt: The premature LH peaks cannot arise and the frequency of hyperstimulation syndrome should be reduced. In addition, less HMG is used in the 2nd phase of therapy, the ovulation triggering phase. This gives this in-vitro fertilization treatment a not inconsiderable cost advantage. In-vitro fertilization is, for example, used when a tube anomaly is present. To perform this treatment it is necessary to precisely monitor the cycle and to establish the time of ovulation as precisely as possible. This has hitherto only been achieved to a limited extent since preovulatory LH increase often occurred too early due to simulation with HMG/HCG, or was not maintained for a sufficiently long period. Avoidance of this premature increase is, however, of critical importance for the success of the treatment in order to precisely determine the time of fertilization. This reduces the physical and mental burden on the patient and makes optimum use of hospital logistics. To achieve this objective with great reliability it is necessary to suppress endogenous hormone production (LH-FSH, oestradiol) as completely as possible in order to simultaneously stimulate follicle maturation through administration of exogenous gonadotrophins (HMG/HCG) and to monitor the hormone status at any time. […]
# [2] = Hydrolysis of terminal amide group in acid medium; type: physicochemical; conditions: acid medium (acetic acid solution)
# Procedure: (§1) The solution is then diluted to a final concentration of 3% peptide, e.g., cetrorelix, with water for injection purposes and mannitol is added. Although it is stated in the literature that the terminal amide group hydrolyzes easily in acid medium, this was not found in the case of cetrorelix. Solutions prepared according to this method caused no difficulties during filtration. The correct amounts of active substance were always found.
# [3] = Stability of aqueous solution / conventional sterilization; type: physicochemical
# Procedure: It should be possible to administer the active substance subcutaneously in a dose of 0.1 to 20 mg. Aqueous solutions of the decapeptide are unstable, and, therefore, autoclaving in the container used to distribute it is not possible. […] To obtain an injectable solution it was therefore necessary to develop a lyophilizate.
# [4] = Dissolution in 30% volume/volume acetic acid; type: physicochemical
# Procedure: as §1
smiles,measurement,setting,value
CC(=O)N[C@H](Cc1ccc2ccccc2c1)C(=O)N[C@H](Cc1ccc(Cl)cc1)C(=O)N[C@H](Cc1cccnc1)C(=O)N[C@@H](CO)C(=O)N[C@@H](Cc1ccc(O)cc1)C(=O)N[C@H](CCCNC(N)=O)C(=O)N[C@@H](CC(C)C)C(=O)N[C@@H](CCCNC(=N)N)C(=O)N1CCC[C@H]1C(=O)N[C@H](C)C(N)=O [Cetrorelix] (Ac-[d2Nal][dPhe(4-Cl)][d3Pal]SY[dCit]LRP[dA]-NH2),Suppression achieved,[1],total suppression
same,Hydrolysis of terminal amide group,[2],not found
same,Stability of aqueous solutions,"[3]; aqueous solution, autoclaving in the container not possible",unstable
same,Behaviour during conventional sterilization,"[3]; conventional sterilization, prescribed conditions",tends to decompose
same,Solubility in acetic acid,[4],easily dissolved
